Activity calls are given as the source filed them.
Tests used:
[1] = target: Dual specificity tyrosine-phosphorylation-regulated kinase 1A (Rattus norvegicus, UniProt Q63470); assay type: biochemical, Homo sapiens
[2] = target: T1, Histone-lysine N-methyltransferase NSD2 (Homo sapiens, UniProt O96028); assay type: biochemical
T1 sequence (O96028 whole entry): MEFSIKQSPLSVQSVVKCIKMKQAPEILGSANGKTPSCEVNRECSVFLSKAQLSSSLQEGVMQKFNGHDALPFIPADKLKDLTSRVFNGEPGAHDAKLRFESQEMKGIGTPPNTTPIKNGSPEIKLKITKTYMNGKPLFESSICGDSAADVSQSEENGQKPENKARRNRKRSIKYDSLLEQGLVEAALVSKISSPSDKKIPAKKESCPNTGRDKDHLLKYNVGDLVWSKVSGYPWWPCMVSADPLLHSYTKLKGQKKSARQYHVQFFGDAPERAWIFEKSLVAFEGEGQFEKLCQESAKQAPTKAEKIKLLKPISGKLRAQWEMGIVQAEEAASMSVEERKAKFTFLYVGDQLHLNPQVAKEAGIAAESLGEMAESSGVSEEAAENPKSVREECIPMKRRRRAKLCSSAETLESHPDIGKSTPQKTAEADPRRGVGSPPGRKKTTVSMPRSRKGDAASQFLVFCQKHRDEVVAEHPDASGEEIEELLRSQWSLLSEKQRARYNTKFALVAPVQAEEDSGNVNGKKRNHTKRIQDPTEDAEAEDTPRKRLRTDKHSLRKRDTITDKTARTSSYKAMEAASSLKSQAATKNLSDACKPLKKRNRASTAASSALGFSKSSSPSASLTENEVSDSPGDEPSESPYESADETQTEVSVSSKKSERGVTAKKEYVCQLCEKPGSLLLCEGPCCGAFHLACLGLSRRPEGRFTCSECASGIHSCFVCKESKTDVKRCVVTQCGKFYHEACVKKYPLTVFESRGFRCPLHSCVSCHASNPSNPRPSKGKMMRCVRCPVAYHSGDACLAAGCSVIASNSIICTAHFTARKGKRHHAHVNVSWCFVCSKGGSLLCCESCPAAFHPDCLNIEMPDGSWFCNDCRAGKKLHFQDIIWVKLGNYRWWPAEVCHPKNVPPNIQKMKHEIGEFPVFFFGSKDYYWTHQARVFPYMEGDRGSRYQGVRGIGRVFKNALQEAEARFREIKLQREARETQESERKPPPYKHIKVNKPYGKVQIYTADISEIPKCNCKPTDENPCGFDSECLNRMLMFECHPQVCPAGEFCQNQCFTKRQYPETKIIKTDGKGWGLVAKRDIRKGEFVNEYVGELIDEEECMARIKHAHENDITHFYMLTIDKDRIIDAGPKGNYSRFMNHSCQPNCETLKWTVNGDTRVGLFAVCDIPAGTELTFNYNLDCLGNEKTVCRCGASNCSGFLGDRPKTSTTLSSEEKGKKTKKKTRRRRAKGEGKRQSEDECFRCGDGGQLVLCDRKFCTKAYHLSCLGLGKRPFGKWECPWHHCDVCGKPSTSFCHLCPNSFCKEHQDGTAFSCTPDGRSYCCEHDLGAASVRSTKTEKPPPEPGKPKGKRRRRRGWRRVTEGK

HEK293 [3] = experiment: cells; conditions: Homo sapiens
HEK293 [4] = experiment: cells; conditions: Homo sapiens; remark: listed apart in the source
Phospholipase D1 = target: T2, Phospholipase D1 (Homo sapiens, UniProt Q13393); experiment: PLD1 inhibitor potency in cells, dose response (AID 602151); assay type: functional;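 note: cellular PLD1 assay in Calu-1 cells stimulated with PMA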
T2 sequence (Q13393 whole entry): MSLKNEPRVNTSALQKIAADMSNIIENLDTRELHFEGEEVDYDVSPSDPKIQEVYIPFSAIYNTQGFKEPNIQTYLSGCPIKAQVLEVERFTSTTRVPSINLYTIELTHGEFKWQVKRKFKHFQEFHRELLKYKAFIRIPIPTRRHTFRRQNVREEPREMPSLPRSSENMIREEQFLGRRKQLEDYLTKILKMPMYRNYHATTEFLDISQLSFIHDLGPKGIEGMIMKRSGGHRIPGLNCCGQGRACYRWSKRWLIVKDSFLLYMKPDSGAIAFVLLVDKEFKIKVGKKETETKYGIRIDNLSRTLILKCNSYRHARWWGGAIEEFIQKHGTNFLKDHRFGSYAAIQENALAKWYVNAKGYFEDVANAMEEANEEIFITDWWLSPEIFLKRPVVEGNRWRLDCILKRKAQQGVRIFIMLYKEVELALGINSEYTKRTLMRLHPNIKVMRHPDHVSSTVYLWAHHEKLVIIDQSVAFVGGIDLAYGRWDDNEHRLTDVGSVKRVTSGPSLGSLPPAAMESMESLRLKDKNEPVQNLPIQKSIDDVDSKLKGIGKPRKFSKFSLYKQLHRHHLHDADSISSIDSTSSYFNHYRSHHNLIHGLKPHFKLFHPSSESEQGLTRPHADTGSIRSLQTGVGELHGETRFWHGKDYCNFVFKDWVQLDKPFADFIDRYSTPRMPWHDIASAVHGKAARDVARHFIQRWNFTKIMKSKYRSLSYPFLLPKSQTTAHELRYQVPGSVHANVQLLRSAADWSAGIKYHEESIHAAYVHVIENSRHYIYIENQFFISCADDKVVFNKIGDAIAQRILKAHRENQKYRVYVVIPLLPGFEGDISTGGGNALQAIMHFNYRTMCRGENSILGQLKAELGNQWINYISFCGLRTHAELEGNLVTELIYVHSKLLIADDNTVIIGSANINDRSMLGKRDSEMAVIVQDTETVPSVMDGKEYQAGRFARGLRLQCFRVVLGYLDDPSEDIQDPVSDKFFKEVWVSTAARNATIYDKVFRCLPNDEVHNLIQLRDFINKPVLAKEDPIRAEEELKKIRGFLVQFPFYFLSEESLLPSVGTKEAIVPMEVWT

Phospholipase D2 = Phospholipase D2 (Homo sapiens, UniProt O14939); experiment: PLD2 inhibitor potency in cells, dose response (AID 602147); assay type: functional;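 note: cellular assay in HEK293 cells overexpressing GFP-tagged PLD2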
Phospholipase D2, sequence (O14939 whole entry): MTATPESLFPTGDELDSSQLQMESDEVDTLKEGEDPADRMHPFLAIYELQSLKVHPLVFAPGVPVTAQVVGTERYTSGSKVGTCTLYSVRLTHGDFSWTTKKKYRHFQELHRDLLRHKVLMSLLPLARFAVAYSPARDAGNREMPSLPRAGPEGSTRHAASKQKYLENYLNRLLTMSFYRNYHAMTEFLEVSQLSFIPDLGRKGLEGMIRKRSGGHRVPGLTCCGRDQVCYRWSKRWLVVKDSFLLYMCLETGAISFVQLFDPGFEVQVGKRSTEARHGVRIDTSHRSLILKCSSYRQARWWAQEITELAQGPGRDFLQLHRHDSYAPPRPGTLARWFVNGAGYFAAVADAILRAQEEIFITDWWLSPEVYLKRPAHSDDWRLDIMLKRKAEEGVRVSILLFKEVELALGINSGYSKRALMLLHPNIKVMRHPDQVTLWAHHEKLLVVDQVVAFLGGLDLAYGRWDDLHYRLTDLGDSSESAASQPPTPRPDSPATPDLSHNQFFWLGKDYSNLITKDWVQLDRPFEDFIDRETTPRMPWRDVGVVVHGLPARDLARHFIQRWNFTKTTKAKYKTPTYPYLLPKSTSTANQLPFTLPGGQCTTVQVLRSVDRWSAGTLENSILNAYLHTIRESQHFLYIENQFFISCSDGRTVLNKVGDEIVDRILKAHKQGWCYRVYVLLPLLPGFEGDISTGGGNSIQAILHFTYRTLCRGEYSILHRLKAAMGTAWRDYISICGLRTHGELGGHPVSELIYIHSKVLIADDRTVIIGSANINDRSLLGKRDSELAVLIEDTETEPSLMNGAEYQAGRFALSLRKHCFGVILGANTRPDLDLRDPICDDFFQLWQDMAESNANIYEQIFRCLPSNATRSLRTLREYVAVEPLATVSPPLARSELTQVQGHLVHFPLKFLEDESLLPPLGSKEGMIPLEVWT

Beta-galactosidase = Beta-galactosidase (Escherichia coli, UniProt Q8VNN2); experiment: PubChem AID 485352; assay type: functional
Beta-galactosidase, sequence (Q8VNN2 whole entry): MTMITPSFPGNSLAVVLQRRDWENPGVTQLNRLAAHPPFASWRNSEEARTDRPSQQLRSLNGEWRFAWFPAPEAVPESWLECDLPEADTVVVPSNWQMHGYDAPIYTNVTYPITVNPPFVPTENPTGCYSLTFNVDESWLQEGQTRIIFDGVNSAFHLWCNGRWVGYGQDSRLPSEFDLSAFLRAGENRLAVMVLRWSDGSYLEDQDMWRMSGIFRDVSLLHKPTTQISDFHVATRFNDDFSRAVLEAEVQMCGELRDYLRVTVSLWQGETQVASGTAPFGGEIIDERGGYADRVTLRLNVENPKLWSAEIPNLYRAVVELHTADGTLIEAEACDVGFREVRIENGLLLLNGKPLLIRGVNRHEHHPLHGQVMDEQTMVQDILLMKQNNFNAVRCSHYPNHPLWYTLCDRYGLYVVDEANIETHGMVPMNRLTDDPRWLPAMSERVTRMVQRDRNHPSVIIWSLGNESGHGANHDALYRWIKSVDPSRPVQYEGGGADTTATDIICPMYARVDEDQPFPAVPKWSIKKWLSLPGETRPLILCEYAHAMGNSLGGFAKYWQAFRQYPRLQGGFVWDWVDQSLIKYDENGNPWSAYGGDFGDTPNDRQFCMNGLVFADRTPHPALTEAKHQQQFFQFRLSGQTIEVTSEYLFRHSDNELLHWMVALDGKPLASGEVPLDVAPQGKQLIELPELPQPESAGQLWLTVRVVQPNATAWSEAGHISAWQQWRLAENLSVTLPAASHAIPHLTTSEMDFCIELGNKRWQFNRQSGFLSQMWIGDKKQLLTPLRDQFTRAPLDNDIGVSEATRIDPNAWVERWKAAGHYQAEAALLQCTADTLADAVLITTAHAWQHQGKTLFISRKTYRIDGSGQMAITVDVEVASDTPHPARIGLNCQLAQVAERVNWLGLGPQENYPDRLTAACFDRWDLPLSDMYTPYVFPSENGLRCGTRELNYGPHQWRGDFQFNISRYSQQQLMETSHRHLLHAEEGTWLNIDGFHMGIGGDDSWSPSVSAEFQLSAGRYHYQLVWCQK

[5] = target: Type-1 angiotensin II receptor (Homo sapiens, UniProt P30556); experiment: AT1 receptor antagonists, dose response, selectivity assay for APJ receptor antagonist project, cell-based, uHTS hits (AID 463214); assay type: functional;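 note: antagonist potency against angiotensin II stimulated AT1 response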
Type-1 angiotensin II receptor, sequence (P30556 whole entry, the tested form may be a part): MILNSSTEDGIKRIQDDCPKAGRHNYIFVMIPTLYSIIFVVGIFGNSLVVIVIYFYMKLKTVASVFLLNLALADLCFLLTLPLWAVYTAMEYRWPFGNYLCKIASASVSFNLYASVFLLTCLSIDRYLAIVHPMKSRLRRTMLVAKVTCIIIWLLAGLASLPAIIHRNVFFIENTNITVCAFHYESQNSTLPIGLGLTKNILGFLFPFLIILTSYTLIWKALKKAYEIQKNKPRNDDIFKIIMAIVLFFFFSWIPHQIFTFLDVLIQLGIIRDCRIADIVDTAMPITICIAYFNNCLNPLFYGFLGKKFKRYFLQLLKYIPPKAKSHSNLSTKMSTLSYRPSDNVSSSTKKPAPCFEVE

Hexokinase-1 = Hexokinase-1 (Homo sapiens, UniProt P19367); experiment: SAR analysis of small molecule inhibitors of hexokinase domain containing I (HKDC1) in the hexokinase 1 selectivity assay. [Related pubchem assays (depositor defined):AID493160, AID493190]; assay type: functional
Hexokinase-1, sequence (P19367 whole entry, the tested form may be a part): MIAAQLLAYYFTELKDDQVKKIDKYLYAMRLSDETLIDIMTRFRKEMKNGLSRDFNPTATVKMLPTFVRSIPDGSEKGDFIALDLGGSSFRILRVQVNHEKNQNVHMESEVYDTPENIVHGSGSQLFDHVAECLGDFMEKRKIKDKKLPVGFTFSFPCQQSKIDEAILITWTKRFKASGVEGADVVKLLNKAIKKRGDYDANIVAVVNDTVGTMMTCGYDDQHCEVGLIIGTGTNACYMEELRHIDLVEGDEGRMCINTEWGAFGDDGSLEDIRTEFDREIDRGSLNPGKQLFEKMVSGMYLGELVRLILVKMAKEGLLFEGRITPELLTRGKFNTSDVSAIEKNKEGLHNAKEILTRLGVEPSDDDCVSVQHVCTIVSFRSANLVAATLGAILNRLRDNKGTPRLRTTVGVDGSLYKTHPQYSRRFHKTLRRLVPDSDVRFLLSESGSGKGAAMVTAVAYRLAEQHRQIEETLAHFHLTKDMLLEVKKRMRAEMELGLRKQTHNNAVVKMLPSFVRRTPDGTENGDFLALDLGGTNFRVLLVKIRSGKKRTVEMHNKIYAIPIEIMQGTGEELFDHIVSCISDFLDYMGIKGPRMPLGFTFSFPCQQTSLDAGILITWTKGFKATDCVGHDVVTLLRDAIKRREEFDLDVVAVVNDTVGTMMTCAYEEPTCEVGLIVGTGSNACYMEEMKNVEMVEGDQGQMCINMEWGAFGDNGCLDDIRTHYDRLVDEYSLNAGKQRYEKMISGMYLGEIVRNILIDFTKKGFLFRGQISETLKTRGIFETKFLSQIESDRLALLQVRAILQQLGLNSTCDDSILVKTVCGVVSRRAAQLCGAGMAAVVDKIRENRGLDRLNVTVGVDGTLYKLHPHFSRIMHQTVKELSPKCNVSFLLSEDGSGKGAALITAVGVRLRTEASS

Hexokinase HKDC1 = target: T3, Hexokinase HKDC1 (Homo sapiens, UniProt Q2TB90); experiment: SAR analysis of small molecule inhibitors of hexokinase domain containing I (HKDC1). [Related pubchem assays (depositor defined):AID493160, AID493190]; assay type: functional
T3 sequence (Q2TB90 whole entry): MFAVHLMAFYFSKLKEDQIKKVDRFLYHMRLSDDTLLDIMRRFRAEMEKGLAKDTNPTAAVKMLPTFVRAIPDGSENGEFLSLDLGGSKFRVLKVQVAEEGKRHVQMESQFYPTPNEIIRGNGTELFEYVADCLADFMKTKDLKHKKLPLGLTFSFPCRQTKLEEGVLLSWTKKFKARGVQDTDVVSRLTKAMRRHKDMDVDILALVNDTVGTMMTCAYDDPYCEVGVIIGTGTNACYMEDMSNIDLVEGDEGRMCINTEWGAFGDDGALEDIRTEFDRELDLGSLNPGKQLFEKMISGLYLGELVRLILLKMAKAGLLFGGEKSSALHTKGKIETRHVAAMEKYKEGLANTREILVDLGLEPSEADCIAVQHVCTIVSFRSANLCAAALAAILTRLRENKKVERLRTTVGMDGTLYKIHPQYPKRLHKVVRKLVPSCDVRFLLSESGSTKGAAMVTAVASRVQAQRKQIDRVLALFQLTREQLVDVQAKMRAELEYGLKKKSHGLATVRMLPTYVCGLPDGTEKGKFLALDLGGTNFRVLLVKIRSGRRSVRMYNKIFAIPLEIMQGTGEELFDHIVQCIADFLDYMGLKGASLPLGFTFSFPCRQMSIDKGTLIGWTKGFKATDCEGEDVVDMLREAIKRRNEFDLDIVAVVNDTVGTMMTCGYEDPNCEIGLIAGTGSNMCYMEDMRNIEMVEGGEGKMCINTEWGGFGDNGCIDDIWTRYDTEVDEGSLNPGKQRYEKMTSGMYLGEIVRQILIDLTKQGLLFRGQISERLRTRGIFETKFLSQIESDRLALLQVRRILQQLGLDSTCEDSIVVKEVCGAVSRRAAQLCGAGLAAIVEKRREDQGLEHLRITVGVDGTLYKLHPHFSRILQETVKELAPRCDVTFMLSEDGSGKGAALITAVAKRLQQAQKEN

[6] = target: Beta-2 adrenergic receptor (Homo sapiens, UniProt P07550); experiment: beta2AR agonists driving receptor internalization, dose response, cell-based, FAP fluorogen, flow cytometry, cherry pick 1 (AID 588763); assay type: functional
Beta-2 adrenergic receptor, sequence (P07550 whole entry): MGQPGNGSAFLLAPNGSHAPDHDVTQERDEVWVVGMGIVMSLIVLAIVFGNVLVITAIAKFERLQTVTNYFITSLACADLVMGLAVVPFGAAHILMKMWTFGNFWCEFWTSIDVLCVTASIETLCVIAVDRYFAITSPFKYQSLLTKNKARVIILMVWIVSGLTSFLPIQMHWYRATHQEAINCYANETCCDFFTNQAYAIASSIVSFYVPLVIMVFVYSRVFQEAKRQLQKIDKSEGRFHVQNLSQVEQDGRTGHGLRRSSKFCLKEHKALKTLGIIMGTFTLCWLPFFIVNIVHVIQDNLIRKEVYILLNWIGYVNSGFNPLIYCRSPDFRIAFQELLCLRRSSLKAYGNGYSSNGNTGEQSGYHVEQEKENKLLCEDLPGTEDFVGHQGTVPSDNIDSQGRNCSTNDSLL

Cytochrome P450 2D6 = Cytochrome P450 2D6 (Homo sapiens, UniProt P10635);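 note: CYP2D6 member of a cytochrome P450 panel assay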
Cytochrome P450 2D6, sequence (P10635 whole entry): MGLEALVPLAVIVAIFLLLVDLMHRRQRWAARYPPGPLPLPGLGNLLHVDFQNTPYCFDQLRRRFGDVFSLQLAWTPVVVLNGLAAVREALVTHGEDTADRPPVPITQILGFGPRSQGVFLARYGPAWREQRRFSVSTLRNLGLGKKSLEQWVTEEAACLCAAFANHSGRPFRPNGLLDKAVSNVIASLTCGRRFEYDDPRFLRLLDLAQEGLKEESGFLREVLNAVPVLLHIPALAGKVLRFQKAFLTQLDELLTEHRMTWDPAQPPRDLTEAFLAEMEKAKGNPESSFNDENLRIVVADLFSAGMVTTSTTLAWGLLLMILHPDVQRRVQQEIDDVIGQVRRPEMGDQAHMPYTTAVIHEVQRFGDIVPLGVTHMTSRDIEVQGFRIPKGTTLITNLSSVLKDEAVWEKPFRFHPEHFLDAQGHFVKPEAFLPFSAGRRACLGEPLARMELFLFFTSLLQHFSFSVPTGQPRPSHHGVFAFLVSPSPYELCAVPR

[7] = target: Glycogen synthase kinase-3 alpha (Homo sapiens, UniProt P49840); experiment: Inhibition of Human GSK-3 alpha Activity Measured in Biochemical System Using Microfluidics - 2063-06_Inhibitor_Dose_DryPowder_Activity. [Related pubchem assays (depositor defined):AID2709]
Glycogen synthase kinase-3 alpha, sequence (P49840 whole entry): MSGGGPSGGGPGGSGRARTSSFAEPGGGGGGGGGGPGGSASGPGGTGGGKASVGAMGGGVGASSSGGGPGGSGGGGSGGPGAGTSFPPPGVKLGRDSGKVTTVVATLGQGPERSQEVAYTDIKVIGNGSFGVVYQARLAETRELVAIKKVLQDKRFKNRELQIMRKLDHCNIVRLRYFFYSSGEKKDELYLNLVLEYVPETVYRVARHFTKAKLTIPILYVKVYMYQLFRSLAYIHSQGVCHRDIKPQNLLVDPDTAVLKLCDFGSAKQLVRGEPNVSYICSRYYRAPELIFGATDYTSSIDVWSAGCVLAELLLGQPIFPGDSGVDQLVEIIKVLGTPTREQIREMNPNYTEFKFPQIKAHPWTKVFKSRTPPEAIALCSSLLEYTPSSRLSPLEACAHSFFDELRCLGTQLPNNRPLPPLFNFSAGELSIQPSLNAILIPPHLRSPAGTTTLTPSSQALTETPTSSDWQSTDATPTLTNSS

Cytochrome P450 1A2 = target: T4, Cytochrome P450 1A2 (Homo sapiens, UniProt P05177);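 note: PubChem cytochrome P450 panel assay, CYP1A2 panel member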
T4 sequence (P05177 whole entry): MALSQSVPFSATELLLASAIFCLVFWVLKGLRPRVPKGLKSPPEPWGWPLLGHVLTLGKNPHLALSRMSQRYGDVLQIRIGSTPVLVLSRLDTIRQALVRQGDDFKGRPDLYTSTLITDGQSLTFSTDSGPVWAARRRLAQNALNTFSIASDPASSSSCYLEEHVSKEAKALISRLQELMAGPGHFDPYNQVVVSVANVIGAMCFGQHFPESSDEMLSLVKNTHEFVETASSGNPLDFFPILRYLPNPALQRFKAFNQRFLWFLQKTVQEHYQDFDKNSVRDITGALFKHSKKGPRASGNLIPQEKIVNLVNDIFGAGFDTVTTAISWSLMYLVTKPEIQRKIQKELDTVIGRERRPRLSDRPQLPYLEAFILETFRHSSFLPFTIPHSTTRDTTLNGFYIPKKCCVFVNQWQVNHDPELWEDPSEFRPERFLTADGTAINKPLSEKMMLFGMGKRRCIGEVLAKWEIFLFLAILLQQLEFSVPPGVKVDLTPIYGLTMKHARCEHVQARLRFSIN

[8] = target: Glycogen synthase kinase-3 beta (Homo sapiens, UniProt P49841); experiment: Inhibition of Human GSK-3 beta Activity Measured in Biochemical System Using Microfluidics - 2063-05_Inhibitor_Dose_DryPowder_Activity. [Related pubchem assays (depositor defined):AID2709]
Glycogen synthase kinase-3 beta, sequence (P49841 whole entry): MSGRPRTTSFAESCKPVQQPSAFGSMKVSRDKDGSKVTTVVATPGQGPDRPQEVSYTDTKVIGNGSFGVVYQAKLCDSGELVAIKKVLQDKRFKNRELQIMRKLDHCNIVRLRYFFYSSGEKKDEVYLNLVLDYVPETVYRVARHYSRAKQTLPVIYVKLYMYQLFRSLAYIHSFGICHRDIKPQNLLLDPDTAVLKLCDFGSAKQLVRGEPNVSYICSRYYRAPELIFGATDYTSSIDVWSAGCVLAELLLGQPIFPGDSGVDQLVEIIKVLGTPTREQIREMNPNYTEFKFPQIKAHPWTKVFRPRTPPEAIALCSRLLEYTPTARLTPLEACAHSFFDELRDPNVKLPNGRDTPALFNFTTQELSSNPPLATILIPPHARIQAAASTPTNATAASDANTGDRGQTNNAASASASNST

[9] = inhibitors of SNCA 5'UTR-driven reporter translation, confirmation, H4 neuroglioma cells, luminescence (AID 1988); assay type: functional, cell-based
[10] = Luminescence Cell-Based Dose Response HTS to Identify Inhibitors of 5'UTR Stem-Loop Driven Prion Protein mRNA Translation in H4 Neuroglioblastoma Cells. [Related pubchem assays: 1827 (Project Summary), 1813 (Primary HTS)]; assay type: functional
[11] = inhibitors of firefly luciferase expression or activity, dose response, H4 neuroglioma cells, luminescence (AID 1990); assay type: functional, cell-based

OC[C@H]1O[C@@H](n2cnc3cc(Cl)c(Cl)cc32)[C@H](O)[C@@H]1O [DICHLORORIBOBENZIMIDAZOLE]
AC50 [1]: 3.76 µM (active)

NC1(C(=O)O)CSSC1
AC50 [2]: 14.5 µM (active) | EC50 (HEK293 [3]): > 59.8 µM (inactive) | EC50 (HEK293 [4]): > 59.8 µM (inactive)

O=C(NCCN1CCC(n2c(=O)[nH]c3ccc(F)cc32)CC1)c1cccc2c1C(=O)c1ccccc1-2
IC50 (Phospholipase D1): 0.007 µM (active) | IC50 (Phospholipase D2): 0.17 µM (active)

O=c1c2cc(Br)ccc2[nH]c(=S)n1Cc1ccccn1
EC50 (Beta-galactosidase): > 40 µM (inactive) | IC50 [5]: 29.7 µM (not active)

COc1ccc(CNc2cc3n(c(=O)n2)CCc2cc(OC)c(OC)cc2-3)cc1
IC50 (Hexokinase-1): > 80 µM (inactive) | IC50 (Hexokinase HKDC1): > 80 µM (inactive)

C[C@H](CN1CCC2(CC1)C(=O)NCN2c1ccccc1)NC(=O)c1cc(Br)c(Br)o1
IC50 (Phospholipase D1): 0.33 µM (active) | IC50 (Phospholipase D2): 2.3 µM (active)

Cc1[nH]n(C(N)=S)c(=O)c1/N=N/c1ccc([N+](=O)[O-])cc1Cl
EC50 (Beta-galactosidase): > 40 µM (inactive) | IC50 [5]: > 40 µM (not active)

CC(=O)c1ccc(OCc2cc(C(=O)N(C)CCOc3ccc(C)cc3)no2)cc1
EC50 [6]: 1.91 µM (active)

c1ccc2c(CSc3nnc(-c4ccncc4)o3)cccc2c1
AC50 (Cytochrome P450 2D6): 0.501 µM (inconclusive) | AC50 [7]: 2.93 µM (active) | AC50 (Cytochrome P450 1A2): 3.16 µM (inconclusive) | AC50 [8]: 0.143 µM (active)

C=CCNc1nc(N)c([N+](=O)[O-])c(Nc2ccccc2OC)n1
EC50 [9]: 14.2 µM (active) | EC50 [10]: 11.7 µM (active) | AC50 [7]: 0.388 µM (active) | EC50 [11]: 11.4 µM (active) | AC50 [8]: 0.0544 µM (active)

O=S(=O)(Nc1cccc2ccccc12)c1ccc(Cl)cc1
IC50 (Hexokinase-1): > 80 µM (inactive) | IC50 (Hexokinase HKDC1): > 80 µM (inactive)

COc1ccc(N2C(=O)CC(N(CCc3ccc(OC)c(OC)c3)C(S)=Nc3ccccc3)C2=O)cc1 (stereo not drawn)
EC50 (HEK293 [3]): > 59.6 µM (inactive) | EC50 (HEK293 [4]): > 59.6 µM (inactive)

From ChEMBL document CHEMBL1201862, “PubChem BioAssay data set” (2004)
